Data from patent publication US11304431B2, “Sweetener and flavor compositions, methods of making and methods of use thereof” (EPC Natural Products Co., Ltd., priority 2018, dated 2022).
Residues, ends and D or L forms follow the SMILES beside them.

How the values were obtained:
[1] = sweetness depends on the tested concentration compared with sucrose; cited from earlier work
[2] = HPLC/DAD/MS of Maillard reaction intermediates (MRI, Amadori products), unreacted partners and degradation kinetics at various pH; settings: 120 °C; for % formation from degraded Phe: n.d. = not detected
Protocol: For HPLC analysis the reacted samples were injected after filtration (2 μm syringe filters).
Mobile Phase A consisted of a 0.1% formic acid in water. Mobile Phase B consisted of 0.1% formic acid in acetonitrile. […] Injection volume was set to 20 μl.
The mobile phase consisted of (A) 0.1% HCOOH (v/v) and (B) AcCN. A gradient of 5% (B) to 15% (B) was applied between 0 min to 15 min. Between 15 and 20 min (B) was increased to 45% which was kept for 5 min. Detection consisted of UV/VIS-DAD (205 nm, 254 nm, 450 nm) coupled to ESI-MS (pos mode, 300° C., TIC from m/z 120-1200, fragmentor 100).
Quantitative evaluation was performed using external standardization.

[3] = DPPH radical-scavenging activity (Example 65); settings: Reb-A 10 mM with or without amino acid, 100° C., 0-5 hours, diluted 1:10; FIG. 49 and 50
Protocol: 1 mg 1,1-Diphenyl-2-picrylhydrazyl radical (DPPH)/ml ethanol, dilution to assay concentration were prepared in ethanol (40 μg/mL); Calibration samples were prepared with Ascorbic acid in a concentration of 0-10 μg/mL; as a negative control sample, water was used.
Samples in aqueous solution were used as such or diluted with water.
A 0.1 ml sample (or calibration standard) was mixed with 3.9 ml solution of DPPH (100 μMolar) and reacted while protected from light at room temperature for 30 min. Absorbance was determined at 517 nm against ethanol.
10 mM of amino acid and/or 10 mM sugar were dissolved in 10 ml 0.1 mM KH2PO4-buffer, pH=7.8.
The samples were kept at 100° C. in sealed glass vials (Pyrex 15 ml with screw caps) for 0 (before reaction), 2.5 or 5.0 hours. Thereafter the samples were transferred to an ice water bath and cooled down to room temperature. These samples were diluted 1:10 and used for the test assay for anti-oxidant potential.

[4] = reaction of Phe and Suc, pH = 5.5, 1.0 h

Row | Compound | times sweeter than sucrose (sugar, cane sugar) [1] | other results
1 | O=S(=O)([O-])NC1CCCCC1.[Na+] [sodium cyclamate] | about 30 times | 
2 | N[C@H](Cc1ccccc1)C(=O)O [Phe] |  | % degradation [2, 4]: 5.50%; % degradation ([2]; reaction of Phe and Xyl, pH = 7.0, 1.0 h): 4.80%
3 | C[C@H](CC[C@@H](O[C@@H]1O[C@H](CO[C@@H]2O[C@H](CO)[C@@H](O)[C@H](O)[C@H]2O)[C@@H](O)[C@H](O)[C@H]1O[C@@H]1O[C@H](CO)[C@@H](O)[C@H](O)[C@H]1O)C(C)(C)O)[C@H]1CC[C@@]2(C)[C@@H]3CC=C4[C@@H](CC[C@H](O[C@@H]5O[C@H](CO[C@@H]6O[C@H](CO)[C@@H](O)[C@H](O)[C@H]6O)[C@@H](O)[C@H](O)[C@H]5O)C4(C)C)[C@]3(C)[C@H](O)C[C@]12C [mogroside V] | 256-344 times | 
4 | OC[C@@H](O)[C@@H](O)[C@H](O)[C@H](O)CO [Mannitol] | 0.55-0.65 times | 
5 | O=C(O)[C@H](Cc1ccccc1)NCC(=O)[C@@H](O)[C@H](O)[C@H](O)CO [MRI (Phe-Glu)] |  | % formation from degraded Phe [2, 4]: <0.10%; % formation from degraded Phe ([2]; reaction of Phe and Suc, pH = 7.0, 1.0 h): 0.54%; % formation from degraded Phe ([2]; reaction of Phe and Suc, pH = 8.5, 1.0 h): 0.84%
6 | C=C1C[C@@]23CC[C@H]4[C@@](C)(CCC[C@@]4(C)C(=O)O[C@@H]4O[C@H](CO)[C@@H](O)[C@H](O)[C@H]4O)[C@@H]2CC[C@]1(O[C@@H]1O[C@H](CO)[C@@H](O)[C@H](O[C@@H]2O[C@H](CO)[C@@H](O)[C@H](O)[C@H]2O)[C@H]1O[C@@H]1O[C@H](CO)[C@@H](O)[C@H](O)[C@H]1O)C3 [Reb-A, Rebaudioside A] |  | anti-oxidant properties [3]: substantial anti-oxidant properties
7 | OC[C@H]1O[C@H](O[C@]2(CCl)O[C@H](CCl)[C@@H](O)[C@@H]2O)[C@H](O)[C@@H](O)[C@H]1Cl [sucralose] | about 600 times | 
8 | C=C1C[C@@]23CC[C@H]4[C@@](C)(CCC[C@@]4(C)C(=O)O[C@@H]4O[C@H](CO)[C@@H](O)[C@H](O)[C@H]4O)[C@@H]2CC[C@]1(O[C@@H]1O[C@H](CO)[C@@H](O)[C@H](O)[C@H]1O)C3 [Rubusoside] | 200 times | 
9 | COC(=O)[C@H](Cc1ccccc1)NC(=O)[C@@H](N)CC(=O)O [Aspartame] (H-Asp-Phe-OMe) | 160-200 times | 
10 | C[C@H](CC[C@@H](O[C@@H]1O[C@H](CO)[C@@H](O)[C@H](O)[C@H]1O[C@@H]1O[C@H](CO)[C@@H](O)[C@H](O)[C@H]1O)C(C)(C)O)[C@H]1CC[C@@]2(C)[C@H]3CC=C4[C@@H](CC[C@H](O[C@@H]5O[C@H](CO[C@@H]6O[C@H](CO)[C@@H](O)[C@H](O)[C@H]6O)[C@@H](O)[C@H](O)[C@H]5O)C4(C)C)[C@]3(C)[C@H](O)C[C@]12C [mogroside IV] | 126 times | 
